Measurements published in publication PMC6222422, “Synthesis and Biological Evaluation of Novel Indole-Derived Thioureas” (Molecules : A Journal of Synthetic Chemistry and Natural …, 2018).
In brackets after ≈: the same amount, converted by molar mass.

Key:
[1] = test system: methicillin-resistant strains of S. aureus (MRSA); assay: MIC against hospital strains; conditions: Staphylococcus aureus
S. aureus ATCC 25923 [2] = assay: disc diffusion method; format: cell-based, Staphylococcus aureus; conditions: Staphylococcus aureus, ATCC25923, applied 400 µg per disc, dash = lack of the growth inhibition area, read-out: diameter of growth inhibitory zone (GIZ)
S. aureus DNA gyrase = S. aureus DNA gyrase (Staphylococcus aureus, UniProt P0A0K8+P20831); assay: S. aureus DNA gyrase supercoiling assay; format: biochemical
BVDV = assay: microbe, parasite or virus in culture; format: cell-based, bovine viral diarrhoea virus; conditions: Bovine viral diarrhea virus isolates and strains, MDBK, in Bos taurus, read-out: BVDV EC50
B. cereus ATCC 11778 [3] = assay: MIC, twofold serial agar dilution; format: cell-based; conditions: Bacillus cereus, ATCC11778, 18 h, 35 °C, read-out: minimal inhibitory concentrations (MIC)
RSV = assay: microbe, parasite or virus in culture; format: cell-based, human respiratory syncytial virus; conditions: human respiratory syncytial virus, Vero 76, read-out: RSV EC50
Reo-1 = assay: microbe, parasite or virus in culture; format: cell-based, reovirus type-1; conditions: Reovirus sp., BHK, read-out: Reo-1 EC50
M. luteus ATCC 10240 [4] = assay: disc diffusion method; format: cell-based, Micrococcus luteus; conditions: Micrococcus luteus, ATCC10240, applied 400 µg per disc, dash = lack of the growth inhibition area, read-out: diameter of growth inhibitory zone (GIZ)
S. aureus NCTC 4163 [5] = assay: disc diffusion method; format: cell-based, Staphylococcus aureus; conditions: Staphylococcus aureus, NCTC4163, applied 400 µg per disc, dash = lack of the growth inhibition area, read-out: diameter of growth inhibitory zone (GIZ)
B. cereus ATCC 11778 [6] = assay: disc diffusion method; format: cell-based, Bacillus cereus; conditions: Bacillus cereus, ATCC11778, applied 400 µg per disc, dash = lack of the growth inhibition area, read-out: diameter of growth inhibitory zone (GIZ)
[7] = test system: S. epidermidis ATCC 12228; assay: MIC, twofold serial agar dilution; format: cell-based; conditions: Staphylococcus epidermidis, ATCC12228, 18 h, 35 °C, read-out: minimal inhibitory concentrations (MIC)
in vitro [8] = conditions: cattle (Bos taurus)
HIV-1 = assay: microbe, parasite or virus in culture; conditions: Human immunodeficiency virus 1, MT4, read-out: HIV-1 EC50
S. aureus ATCC 25923 [9] = assay: MIC, twofold serial agar dilution; format: cell-based; conditions: Staphylococcus aureus, ATCC25923, 18 h, 35 °C, read-out: minimal inhibitory concentrations (MIC)
VSV = assay: microbe, parasite or virus in culture; format: cell-based; conditions: Vesicular stomatitis virus, Vero 76, read-out: VSV EC50
S. aureus ATCC 6538 [10] = assay: disc diffusion method; format: cell-based, Staphylococcus aureus; conditions: Staphylococcus aureus, ATCC6538, applied 400 µg per disc, dash = lack of the growth inhibition area, read-out: diameter of growth inhibitory zone (GIZ)
HSV-1 = assay: microbe, parasite or virus in culture; format: cell-based, human herpes 1; conditions: Human alphaherpesvirus 1, Vero 76, read-out: HSV-1 EC50
S. epidermidis (MRSE) = assay: MIC against hospital strains; conditions: Staphylococcus epidermidis
M. luteus ATCC 10240 [11] = assay: MIC, twofold serial agar dilution; format: cell-based; conditions: Micrococcus luteus, ATCC10240, 18 h, 35 °C, read-out: minimal inhibitory concentrations (MIC)
S. aureus ATCC 6538 [12] = assay: MIC, twofold serial agar dilution; format: cell-based; conditions: Staphylococcus aureus, ATCC6538, 18 h, 35 °C, read-out: minimal inhibitory concentrations (MIC)
S. aureus ATCC 29213 [13] = assay: MIC, twofold serial agar dilution; format: cell-based; conditions: Staphylococcus aureus, ATCC29213, 18 h, 35 °C, read-out: minimal inhibitory concentrations (MIC)
S. aureus NCTC 4163 [14] = assay: MIC, twofold serial agar dilution; format: cell-based; conditions: Staphylococcus aureus, NCTC4163, 18 h, 35 °C, read-out: minimal inhibitory concentrations (MIC)
B. subtilis ATCC 6633 = assay: MIC, twofold serial agar dilution; format: cell-based; conditions: Bacillus subtilis, ATCC6633, 18 h, 35 °C, read-out: minimal inhibitory concentrations (MIC)
S. aureus ATCC 29213 [15] = assay: disc diffusion method; format: cell-based, Staphylococcus aureus; conditions: Staphylococcus aureus, ATCC29213, applied 400 µg per disc, dash = lack of the growth inhibition area, read-out: diameter of growth inhibitory zone (GIZ)
M. luteus ATCC 9341 = assay: MIC, twofold serial agar dilution; format: cell-based; conditions: Micrococcus luteus, ATCC9341, 18 h, 35 °C, read-out: minimal inhibitory concentrations (MIC)
Sb-1 = assay: microbe, parasite or virus in culture; format: cell-based, poliovirus type-1; conditions: Enterovirus C, Vero 76, read-out: Sb-1 EC50
in vitro [16] = conditions: African green monkey (Cercopithecus aethiops)
[17] = hospital S. aureus MRSA strain 389/10
[18] = hospital S. aureus MRSA strain 390/10
[19] = hospital S. aureus MRSA strain 391/10
[20] = hospital S. aureus MRSA strain 392/10
[21] = hospital S. aureus MRSA strain 393/10
[22] = hospital S. aureus MRSA strain 394/10
[23] = hospital S. aureus MRSA strain 399/10
[24] = hospital S. aureus MRSA strain 450/11
[25] = hospital S. aureus MRSA strain 451/11
[26] = hospital S. aureus MRSA strain 452/11
[27] = hospital S. epidermidis MRSE strain 430/11
[28] = hospital S. epidermidis MRSE strain 431/11
[29] = hospital S. epidermidis MRSE strain 432/11
[30] = hospital S. epidermidis MRSE strain 433/11
[31] = hospital S. epidermidis MRSE strain 434/11
[32] = hospital S. epidermidis MRSE strain 435/11
[33] = hospital S. epidermidis MRSE strain 436/11
[34] = hospital S. epidermidis MRSE strain 437/11
[35] = hospital S. epidermidis MRSE strain 438/11
[36] = hospital S. epidermidis MRSE strain 439/11

S. aureus DNA gyrase, sequence (P0A0K8 whole entry): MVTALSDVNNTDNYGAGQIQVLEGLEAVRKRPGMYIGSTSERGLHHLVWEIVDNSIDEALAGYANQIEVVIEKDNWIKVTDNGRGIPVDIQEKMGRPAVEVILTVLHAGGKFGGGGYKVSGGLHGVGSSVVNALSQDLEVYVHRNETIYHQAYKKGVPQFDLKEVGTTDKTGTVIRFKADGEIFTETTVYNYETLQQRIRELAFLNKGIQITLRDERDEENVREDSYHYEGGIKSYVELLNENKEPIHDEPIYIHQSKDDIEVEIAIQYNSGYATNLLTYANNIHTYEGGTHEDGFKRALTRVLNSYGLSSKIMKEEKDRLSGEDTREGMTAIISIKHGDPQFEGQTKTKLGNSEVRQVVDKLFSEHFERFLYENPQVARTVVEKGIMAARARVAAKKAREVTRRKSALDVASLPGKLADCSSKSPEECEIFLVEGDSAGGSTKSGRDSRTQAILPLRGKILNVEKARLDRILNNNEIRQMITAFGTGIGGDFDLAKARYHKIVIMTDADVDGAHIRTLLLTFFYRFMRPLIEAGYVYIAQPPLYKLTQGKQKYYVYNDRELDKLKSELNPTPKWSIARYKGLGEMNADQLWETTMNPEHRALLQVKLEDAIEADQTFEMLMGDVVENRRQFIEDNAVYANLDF
S. aureus DNA gyrase, sequence (P20831 whole entry): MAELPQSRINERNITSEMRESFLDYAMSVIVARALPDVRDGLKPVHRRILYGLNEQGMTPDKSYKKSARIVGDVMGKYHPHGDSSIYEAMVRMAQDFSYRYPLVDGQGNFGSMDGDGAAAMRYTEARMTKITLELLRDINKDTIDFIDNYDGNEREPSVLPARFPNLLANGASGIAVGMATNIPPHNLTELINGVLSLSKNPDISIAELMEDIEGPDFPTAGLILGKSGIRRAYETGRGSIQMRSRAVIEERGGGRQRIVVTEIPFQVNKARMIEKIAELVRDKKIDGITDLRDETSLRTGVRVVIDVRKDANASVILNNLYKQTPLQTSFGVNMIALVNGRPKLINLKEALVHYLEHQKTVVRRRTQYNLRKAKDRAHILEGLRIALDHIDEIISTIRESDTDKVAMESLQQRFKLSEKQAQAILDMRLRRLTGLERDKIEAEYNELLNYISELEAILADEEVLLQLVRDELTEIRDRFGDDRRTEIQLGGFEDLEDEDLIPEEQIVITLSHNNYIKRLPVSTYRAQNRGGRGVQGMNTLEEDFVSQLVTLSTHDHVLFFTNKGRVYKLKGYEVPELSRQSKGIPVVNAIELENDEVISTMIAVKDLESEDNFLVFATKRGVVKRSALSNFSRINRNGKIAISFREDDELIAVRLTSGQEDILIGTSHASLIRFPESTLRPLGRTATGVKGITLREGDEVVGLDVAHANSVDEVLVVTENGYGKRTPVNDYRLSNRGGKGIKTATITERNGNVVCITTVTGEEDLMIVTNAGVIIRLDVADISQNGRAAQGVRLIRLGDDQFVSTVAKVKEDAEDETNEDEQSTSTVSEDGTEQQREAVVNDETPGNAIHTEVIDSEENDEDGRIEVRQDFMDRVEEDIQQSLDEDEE

With `S=C(NCCc1c[nH]c2ccccc12)Nc1cccc(Cl)c1` [Compound 14, 1-(2-(1H-Indol-3-yl)ethyl)-3-(3-chlorophenyl)thiourea] the MIC [1, 17] was 25 µg/mL (≈ 75.8 µM), the MIC [1, 18] was 25 µg/mL (≈ 75.8 µM) and the MIC [1, 19] was 25 µg/mL (≈ 75.8 µM). For the same molecule, the MIC [1, 20] was 25 µg/mL (≈ 75.8 µM), the MIC [1, 21] was 25 µg/mL (≈ 75.8 µM) and the MIC [1, 22] was 25 µg/mL (≈ 75.8 µM). For the same molecule, the MIC [1, 23] was 25 µg/mL (≈ 75.8 µM), the MIC [1, 24] was 25 µg/mL (≈ 75.8 µM) and the MIC [1, 25] was 25 µg/mL (≈ 75.8 µM). The MIC [1, 26] was 25 µg/mL (≈ 75.8 µM), the zone of inhibition at 400 µg/disc (S. aureus ATCC 25923 [2]) was 14 mm and the “effect against DNA gyrase (in words)” value (S. aureus DNA gyrase; data not shown) was “not significantly effective”. The EC50 (BVDV) was > 32 µM, the MIC (B. cereus ATCC 11778 [3]) was 25 µg/mL (≈ 75.8 µM) and the EC50 (RSV) was > 32 µM. For the same molecule, the EC50 (Reo-1) was > 6 µM, the zone of inhibition at 400 µg/disc (M. luteus ATCC 10240 [4]) was 20 mm and the zone of inhibition at 400 µg/disc (S. aureus NCTC 4163 [5]) was 13 mm. For the same molecule, the zone of inhibition at 400 µg/disc (B. cereus ATCC 11778 [6]) was 15 mm, the MIC [7] was 50 µg/mL (≈ 152 µM) and the CC50 (in vitro [8]) was 32 µM. The EC50 (HIV-1) was > 42 µM, the MIC (S. aureus ATCC 25923 [9]) was 50 µg/mL (≈ 152 µM) and the EC50 (VSV) was > 32 µM. For the same molecule, the zone of inhibition at 400 µg/disc (S. aureus ATCC 6538 [10]) was 13 mm, the melting point was 169 to 171 °C and the EC50 (HSV-1) was > 32 µM. The MIC (S. epidermidis (MRSE); [27]) was 25 µg/mL (≈ 75.8 µM), the MIC (S. epidermidis (MRSE); [28]) was 6.25 µg/mL (≈ 18.9 µM) and the MIC (S. epidermidis (MRSE); [29]) was 25 µg/mL (≈ 75.8 µM). The MIC (S. epidermidis (MRSE); [30]) was 25 µg/mL (≈ 75.8 µM), the MIC (S. epidermidis (MRSE); [31]) was 25 µg/mL (≈ 75.8 µM) and the MIC (S. epidermidis (MRSE); [32]) was 25 µg/mL (≈ 75.8 µM). The MIC (S. epidermidis (MRSE); [33]) was 50 µg/mL (≈ 152 µM), the MIC (S. epidermidis (MRSE); [34]) was 25 µg/mL (≈ 75.8 µM) and the MIC (S. epidermidis (MRSE); [35]) was 50 µg/mL (≈ 152 µM). The MIC (S. epidermidis (MRSE); [36]) was 25 µg/mL (≈ 75.8 µM), the MIC (M. luteus ATCC 10240 [11]) was 12.5 µg/mL (≈ 37.9 µM) and the MIC (S. aureus ATCC 6538 [12]) was 50 µg/mL (≈ 152 µM). For the same molecule, the MIC (S. aureus ATCC 29213 [13]) was 50 µg/mL (≈ 152 µM), the MIC (S. aureus NCTC 4163 [14]) was 50 µg/mL (≈ 152 µM) and the MIC (B. subtilis ATCC 6633) was 50 µg/mL (≈ 152 µM). For the same molecule, the zone of inhibition at 400 µg/disc (S. aureus ATCC 29213 [15]) was 15 mm, the MIC (M. luteus ATCC 9341) was 200 µg/mL (≈ 606 µM) and the EC50 (Sb-1) was > 32 µM. The CC50 (in vitro [16]) was 32 µM.
`S=C(NCCc1c[nH]c2ccccc12)Nc1ccc(Cl)c(Cl)c1` [Compound 6, 1-(2-(1H-indol-3-yl)ethyl)-3-(3,4-dichlorophenyl)thiourea] showed an MIC [1, 17] of 6.25 µg/mL (≈ 17.2 µM), an MIC [1, 18] of 6.25 µg/mL (≈ 17.2 µM) and an MIC [1, 19] of 6.25 µg/mL (≈ 17.2 µM). The MIC [1, 20] was 6.25 µg/mL (≈ 17.2 µM), the MIC [1, 21] was 6.25 µg/mL (≈ 17.2 µM) and the MIC [1, 22] was 6.25 µg/mL (≈ 17.2 µM). The MIC [1, 23] was 6.25 µg/mL (≈ 17.2 µM), the MIC [1, 24] was 6.25 µg/mL (≈ 17.2 µM) and the MIC [1, 25] was 6.25 µg/mL (≈ 17.2 µM). It also gave an MIC [1, 26] of 6.25 µg/mL (≈ 17.2 µM), a zone of inhibition at 400 µg/disc (S. aureus ATCC 25923 [2]) of 15 mm and an IC50 (S. aureus DNA gyrase; supercoiling of relaxed pBR322 DNA, 30 min, 37 °C, read-out: IC50 ± SEM, S. aureus DNA Gyrase (converted)) of 199 µM. The EC50 (BVDV) was > 27 µM, the MIC (B. cereus ATCC 11778 [3]) was 6.25 µg/mL (≈ 17.2 µM) and the EC50 (RSV) was > 13 µM. For the same molecule, the EC50 (Reo-1) was > 10 µM, the zone of inhibition at 400 µg/disc (M. luteus ATCC 10240 [4]) was 23 mm and the zone of inhibition at 400 µg/disc (S. aureus NCTC 4163 [5]) was 10 mm. The zone of inhibition at 400 µg/disc (B. cereus ATCC 11778 [6]) was 15 mm, the MIC [7] was 12.5 µg/mL (≈ 34.3 µM) and the CC50 (in vitro [8]) was 27 µM. The EC50 (HIV-1) was > 45 µM, the MIC (S. aureus ATCC 25923 [9]) was 6.25 µg/mL (≈ 17.2 µM) and the EC50 (VSV) was > 13 µM. For the same molecule, the zone of inhibition at 400 µg/disc (S. aureus ATCC 6538 [10]) was 16 mm, the melting point was 168 to 169 °C and the EC50 (HSV-1) was > 13 µM. It also gave an MIC (S. epidermidis (MRSE); [27]) of 6.25 µg/mL (≈ 17.2 µM), an MIC (S. epidermidis (MRSE); [28]) of 6.25 µg/mL (≈ 17.2 µM) and an MIC (S. epidermidis (MRSE); [29]) of 6.25 µg/mL (≈ 17.2 µM). It also gave an MIC (S. epidermidis (MRSE); [30]) of 6.25 µg/mL (≈ 17.2 µM), an MIC (S. epidermidis (MRSE); [31]) of 12.5 µg/mL (≈ 34.3 µM) and an MIC (S. epidermidis (MRSE); [32]) of 6.25 µg/mL (≈ 17.2 µM). It also gave an MIC (S. epidermidis (MRSE); [33]) of 6.25 µg/mL (≈ 17.2 µM), an MIC (S. epidermidis (MRSE); [34]) of 6.25 µg/mL (≈ 17.2 µM) and an MIC (S. epidermidis (MRSE); [35]) of 6.25 µg/mL (≈ 17.2 µM). For the same molecule, the MIC (S. epidermidis (MRSE); [36]) was 6.25 µg/mL (≈ 17.2 µM), the MIC (M. luteus ATCC 10240 [11]) was 6.25 µg/mL (≈ 17.2 µM) and the MIC (S. aureus ATCC 6538 [12]) was 12.5 µg/mL (≈ 34.3 µM). It also gave an MIC (S. aureus ATCC 29213 [13]) of 6.25 µg/mL (≈ 17.2 µM), an MIC (S. aureus NCTC 4163 [14]) of 6.25 µg/mL (≈ 17.2 µM) and an MIC (B. subtilis ATCC 6633) of 12.5 µg/mL (≈ 34.3 µM). For the same molecule, the zone of inhibition at 400 µg/disc (S. aureus ATCC 29213 [15]) was 15 mm, the MIC (M. luteus ATCC 9341) was 12.5 µg/mL (≈ 34.3 µM) and the EC50 (Sb-1) was > 13 µM. For the same molecule, the CC50 (in vitro [16]) was 13 µM.
